Read-outs that look alike come from different tables or passages of the source.
Key:
[1] = target: T1, SIRT1 (Homo sapiens, UniProt Q96EB6); assay: SIRT1 mass spectrometry (MS) based deacetylation assay; assay type: biochemical
T1 sequence (Q96EB6 1-747): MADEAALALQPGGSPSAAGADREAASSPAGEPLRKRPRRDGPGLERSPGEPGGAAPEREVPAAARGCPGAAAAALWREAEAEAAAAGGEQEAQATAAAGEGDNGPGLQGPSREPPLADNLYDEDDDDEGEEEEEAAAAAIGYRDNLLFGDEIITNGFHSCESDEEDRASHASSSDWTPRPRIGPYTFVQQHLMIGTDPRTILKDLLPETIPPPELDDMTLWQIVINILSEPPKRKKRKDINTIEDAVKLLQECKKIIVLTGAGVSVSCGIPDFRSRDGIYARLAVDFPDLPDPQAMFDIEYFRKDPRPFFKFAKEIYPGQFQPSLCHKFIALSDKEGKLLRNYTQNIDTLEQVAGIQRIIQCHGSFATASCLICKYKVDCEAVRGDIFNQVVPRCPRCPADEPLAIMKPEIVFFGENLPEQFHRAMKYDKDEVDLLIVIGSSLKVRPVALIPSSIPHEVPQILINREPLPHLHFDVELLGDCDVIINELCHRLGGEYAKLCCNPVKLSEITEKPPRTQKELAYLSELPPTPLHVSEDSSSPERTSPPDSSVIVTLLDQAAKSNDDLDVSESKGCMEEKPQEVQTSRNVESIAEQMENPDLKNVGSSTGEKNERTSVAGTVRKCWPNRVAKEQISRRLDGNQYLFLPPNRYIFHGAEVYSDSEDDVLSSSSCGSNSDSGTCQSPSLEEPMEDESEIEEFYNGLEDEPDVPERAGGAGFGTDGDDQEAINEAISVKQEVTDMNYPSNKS

[2] = tested on: NCI-H358 cells; assay: Cellular ATP Assay (ATPLite 1Step normalized to AlamarBlue viability); assay type: cell-based; details: for EC50 / IC50: Homo sapiens; for IC50: compounds that lowered intracellular ATP levels
Procedure: Cellular ATP levels are an indirect measurement of cellular metabolic rates and, by extension, mitochondrial function. […] The ATP assay is combined with a cellular viability assay so that cellular ATP levels can be normalized to viable cells. Cellular ATP levels were measured using the ATPLite 1Step Kit (PerkinElmer) and cellular viability was measured using the cell permeable dye, AlamarBlue™.
The Cellular ATP Assay is a multiplexed assay that measures both ATP levels and viability of a given cell sample. This assay is run in a 96-well Assay Plate and data are reported as the [ATP]/viability for each well in the Assay Plate.
The ATPLite 1 Step™ Kit is a single-step luminescent cell-based assay for detection of ATP. The kit contains lyophilized substrate mixture, comprised of D-luciferin and the firefly (Photinus pyralis) enzyme luciferase. Additionally, the kit contains a detergent-based reconstitution buffer that induces the lysis of cellular membranes. The luciferase in the assay mixture catalyzes a reaction between the free cellular ATP and D-luciferin to produce bioluminescence according to the schematic reaction outlined below. The amount of light produced is proportional to the cellular ATP concentration.
The AlamarBlue™ Assay is a single-step assay that utilizes a soluble, non-toxic, cell permeable dye that is added to cell growth media. This dye undergoes electron reduction in viable cells but not dead cells. The reduced dye product gives a fluorescent signal which can be monitored with a fluorescence plate reader (excitation 545 nm and emission 575 nm). The amount of fluorescence generated in a given well is proportional to the number of viable cells. The viability signal generated by this assay is used to normalize the ATP signal from the ATPLite 1Step™ assay results.
The material was dissolved in 100% vehicle (DMSO) to yield a final concentration of 10 mM (stock solution). The stock solution was serially diluted with 100% DMSO as described in SOP 7.10.
In this assay NCI-H358 cells (obtained from the American Tissue Culture Collection, ATCC) were seeded in 96 well microplates (10^4 cells/well). The NCI-H358 Growth Culture Media consists of RPMI 1640 Media supplemented with 10% FBS, […] streptomycin, and 100 units/mL penicillin. […] After 48 hours of compound treatment under cell growth conditions, plates were removed from incubator, and 15 μl of AlamarBlue™ dye was added to each well. Cell microplates were incubated with dye for 2 hours under growth conditions, and fluorescence was subsequently measured using a plate reader. Media containing AlamarBlue™ was removed, and plates were washed in 100 μl of PBS per well. This wash was removed, and 200 μl of 1×ATPLite 1Step reagent was added to each well. Luminescence was then measured using a plate reader. The ATP signal for each well, measured by the luminescence scan, was normalized to its corresponding cell viability value, measured by the fluorescence scan, to generate the average ATP level per viable cell unit (ATP/vCell). The ATP/vCell for each treatment was then normalized to the average vehicle ATP/vCell for its respective cell microplate, yielding the normalized ATP/vCell (norm. ATP/vCell). Finally, the norm. ATP/vCell for each unique treatment was averaged across plate replicates, generating the average norm. ATP/vCell.
Each of these ATP levels was normalized to the cell viability in the corresponding treatment well, generating the ATP/vCell value. Each ATP/vCell value was subsequently normalized to its average Vehicle ATP/vCell values for its respective cell microplate.
Data are represented as the normalized ATP/vCell (arbitrary units). […] These values represent an average of three plate replicates.
A number of compounds were screened for their affect on ATP levels in the assay as described in Example 5. […] NA means that the compound was not tested using the indicated assay.

[3] = SIRT1 activation, mass spectrometry assay, read-out: ED50 MS ASSAY
[4] = fold activation of SIRT1 as determined by MS
[5] = compounds that raised intracellular ATP levels, read-out: ED50 ATP ASSAY
[6] = SIRT1 fold activation as determined by MS

EC50 [1, 3] [µM]	FOLD ACT. MS [1, 6]	SMILES	EC50 [2, 5] [µM]	other results
5 to 50	–	COc1cccc(C(=O)Nc2cccc(-c3nc4ncccc4o3)c2)c1C [Compound 49]	< 50	FOLD ACT. MS [1, 4]: B (B (Fold Activation <250%))
> 150	–	Cc1nc(-c2cccc(NC(=O)c3cccc(N(C)C)c3)c2)cs1 [Compound 79]	< 50	–
–	–	O=C(Nc1ccc2c(c1)OCO2)Nc1cc(-c2nc3ccccc3o2)ccn1 [Compound 86, 1-Benzo[1,3]dioxol-5-yl-3-(4-benzoxazol-2-yl-pyridin-2-yl)-urea]	< 50	EC50 [1]: > 150 µM
> 150	–	CN(C)c1cccc(C(=O)N2CCCN(c3nc4ccccc4o3)CC2)c1 [Compound 89]	–	IC50 [2]: < 50 µM
–	–	O=C(Nc1ccc2c(c1)OCO2)N1CCCN(c2nc3ccccc3o2)CC1 [Compound 90]	> 150	–
> 150	–	COc1cc(C(=O)N2CCCN(c3nc4ccccc4o3)CC2)cc(OC)c1OC [Compound 91]	–	IC50 [2]: < 50 µM
5 to 50	–	Cc1nc(-c2cccc(Nc3nc4ccccc4o3)c2)cs1 [Compound 92]	–	FOLD ACT. MS [1, 4]: B (B (Fold Activation <250%)); IC50 [2]: 51 to 100 µM
5 to 50	–	c1cc(Nc2nc3ccccc3o2)cc(-c2nc3ncccc3o2)c1 [Compound 93]	> 150	FOLD ACT. MS [1, 4]: B (B (Fold Activation <250%))
< 5	–	CN(C)c1cccc(C(=O)Nc2ccccc2-c2nc3ncccc3o2)c1 [Compound 97]	< 50	FOLD ACT. MS [1, 4]: B (B (Fold Activation <250%))
< 5	–	O=C(Nc1cccc(-c2nc3ccncc3s2)c1)Nc1ccc2c(c1)OCO2 [Compound 99]	< 50	FOLD ACT. MS [1, 4]: A (A (Fold activation >250%))
5 to 50	–	COc1ccc(NC(=O)c2cccc(-c3nc4ncccc4o3)c2)c(OC)c1 [Compound 100]	< 50	FOLD ACT. MS [1, 4]: B (B (Fold Activation <250%))
5 to 50	–	COc1ccc(NC(=O)c2cccc(-c3nc4ncccc4o3)c2)cc1OC [Compound 101]	101 to 150	FOLD ACT. MS [1, 4]: A (A (Fold activation >250%))
–	–	COc1cccc(OC)c1C(=O)Nc1cccc(-c2nc3ccccc3s2)c1 [Compound 120]	< 50	–
–	–	COc1cc(C(=O)Nc2cccc(-c3nc4cc(Cl)cc(Cl)c4o3)c2)cc(OC)c1OC [Compound 123]	> 150	–
< 5	A (A (Fold activation >250%))	O=C(Nc1ccccc1-c1nc2cc(CN3CCOCC3)cnc2s1)c1ccc2ccccc2n1 [Compound 724]	–	–
< 5	A (A (Fold activation >250%))	COc1cc(OC)cc(C(=O)Nc2ccccc2-c2nc3cc(CN4CCN(C)CC4)cnc3s2)c1 [Compound 725]	–	–
< 5	A (A (Fold activation >250%))	COc1cc(OC)cc(C(=O)Nc2ccccc2-c2nc3ccc(CN4CCNCC4)nc3s2)c1 [Compound 726]	–	–
< 5	A (A (Fold activation >250%))	Cc1ccc(C(=O)Nc2ccccc2-c2nc3ccc(CN4CCNCC4)nc3s2)cc1C [Compound 727]	–	–

EC50 [1, 3] [µM]	FOLD ACT. MS [1, 6]	SMILES	EC50 [2, 5] [µM]	other results
5 to 50	A (A (Fold activation >250%))	O=C(Nc1ccccc1-c1nc2ccc(CN3CCNCC3)nc2s1)c1ccc(F)c(F)c1 [Compound 728]	–	–
< 5	A (A (Fold activation >250%))	O=C(Nc1ccccc1-c1nc2ccc(CN3CCNCC3)nc2s1)c1ccc2ccccc2n1 [Compound 729]	–	–
5 to 50	A (A (Fold activation >250%))	O=C(Nc1ccccc1-c1nc2cc(CN3CCNCC3)cnc2s1)c1ccc2ncsc2c1 [Compound 730]	–	–
5 to 50	A (A (Fold activation >250%))	O=C(Nc1ccccc1-c1nc2cc(CN3CCNCC3)cnc2s1)c1cccc(C(F)(F)F)c1 [Compound 731]	–	–
< 5	B (B (Fold Activation <250%))	O=C(Nc1ccccc1-c1nc2cc(CN3CCNCC3)cnc2s1)c1cc(-c2ccccc2)no1 [Compound 732]	–	–
< 5	A (A (Fold activation >250%))	O=C(Nc1ccccc1-c1cn2c(CN3CCNCC3)csc2n1)c1cccc(-c2cc[nH]n2)c1 [Compound 733]	–	–
< 5	A (A (Fold activation >250%))	COc1ccc(-c2cc(C(=O)Nc3ccccc3-c3cn4c(CN5CCNCC5)csc4n3)[nH]n2)cc1 [Compound 735]	–	–
< 5	A (A (Fold activation >250%))	COc1ccc(-c2ccc(C(=O)Nc3ccccc3-c3cn4c(CN5CCNCC5)csc4n3)o2)cc1 [Compound 736]	–	–
< 5	A (A (Fold activation >250%))	O=C(Nc1ccccc1-c1cn2c(CN3CCNCC3)csc2n1)c1cccc(SC(F)F)c1 [Compound 737]	–	–
5 to 50	A (A (Fold activation >250%))	COc1cccc(C(=O)Nc2ccccc2-c2cn3c(CN4CCNCC4)csc3n2)c1 [Compound 738]	–	–
< 5	A (A (Fold activation >250%))	COc1cc(C(=O)Nc2ccccc2-c2cn3c(C)csc3n2)cc(OC)c1OC [Compound 739]	–	–
< 5	B (B (Fold Activation <250%))	Cc1csc2nc(-c3ccccc3NC(=O)c3cccc(N(C)C)c3)cn12 [Compound 740]	–	–
< 5	A (A (Fold activation >250%))	CN1CCN(Cc2csc3nc(-c4ccccc4NC(=O)c4cnc5ccccc5n4)cn23)C(=O)C1 [Compound 741]	–	–
< 5	B (B (Fold Activation <250%))	O=C(Nc1ccccc1-c1cn2c(CN3CCSCC3)csc2n1)c1cnc2ccccc2n1 [Compound 742]	–	–
5 to 50	A (A (Fold activation >250%))	COc1cc(F)cc(C(=O)Nc2ccccc2-c2cn3c(CN4CCNCC4)csc3n2)c1 [Compound 743]	–	–
51 to 100	A (A (Fold activation >250%))	O=C(Nc1ccccc1-c1cn2c(CN3CCNCC3)csc2n1)c1cccnc1F [Compound 744]	–	–
< 5	A (A (Fold activation >250%))	O=C(Nc1ccccc1-c1cn2c(Cn3ccnc3)csc2n1)c1cnc2ccccc2n1 [Compound 745]	–	–
–	–	Oc1ccc(C=Cc2cc(O)cc(O)c2)cc1 [resveratrol, reference compound]	–	maximum increase in cellular ATP levels ([2]; 48 hours treatment, at 50 μM resveratrol, normalized ATP/vCell): 3.0 fold; EC50 ([2]; 48 hours, 50% of the maximum increase in normalized ATP/vCell, read-out: EC50 ATP): 29 µM

From patent US8044198B2, “Sirtuin modulating compounds” (Sirtris Pharmaceuticals, Inc., priority 2005, dated 2011)
